Source: paper PMC12152147, “DDB1 engagement defines the selectivity of S656 analogs for cyclin K degradation over CDK inhibition” (EMBO Reports, 2025)
Like-named read-outs stand apart in the source and are kept apart here.

Legend:
CDK9/CyclinT = biological target: T1, CDK9/CyclinT (Homo sapiens, UniProt P50750); test: CDK9/CyclinT in vitro kinase activity, single concentration 1 μM; assay type: biochemical; settings: single concentration 1 μM
T1 construct: purchased BPS Bioscience 79628
Experimental: Kinase activity was assessed using the kinase assay kits from BPS Bioscience for CDK1, CDK9 and CDK12 with Kinase Glo MAX in duplicates. Compounds were tested at a single concentration of 1 μM for CDK1 and CDK9 activity, and in a dilution ranging from 0.64 nM to 50 μM for CDK12 activity. Chemiluminescence was read using the Neo Synergy BioTek plate reader.

[1] = system: OCI-AML5 cells expressing shRNA targeting CUL4A or CUL4B; test: Dose response in OCI-AML5 expressing shRNAs targeting CUL4A, CUL4B or control; assay type: cell-based, H. sapiens; settings: ratio of IC50 in shCUL4A vs shCTRL OCI-AML5 cells
[2] = system: OCI-AML5 cells expressing shRNAs targeting CDK1, 2, 4, 7, 9, cyclin K; test: Dose response in OCI-AML5 expressing shRNAs targeting CDK1, 2, 4, 7, 9, cyclin K or control; assay type: cell-based, H. sapiens; settings: for Class: class from shRNA IC50 profile and cyclin K-eGFP degradation
cyclin KeGFP = test: Cyclin KeGFP reporter system (eGFP/mCherry MFI by flow cytometry);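 on % degradation cyclin K-eGFP: 10 μM compound for 3 h relative to DMSO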; assay type: cell-based, H. sapiens; settings: for % degradation cyclin K-eGFP: cyclin K-eGFP reporter
Experimental: We used the cyclin KeGFP reporter system previously described (Słabicki et al, [2020]). Lentiviral vector (Addgene plasmid #169930) was used to infect OCI-AML5 at a MOI of 5 and were selected with puromycin. Cells were seeded in methylcellulose and let grown as colonies for 10 days. Colonies were isolated, expanded and selected based on cyclin KeGFP fluorescence in presence and absence of cyclin K degrader molecules. Selected G7 clone was used for all reported experiments. Fluorescent signal of cyclin KeGFP and mCherry were quantified by flow cytometry (BD LSRII) in each condition and the geometric mean fluorescence intensity (MFI) were calculated using FlowJo (BD Biosciences). The ratio of eGFP to mCherry was normalized to DMSO-treated cells.

OCI-AML5 cells = test: Dose-response proliferative assay in OCI-AML5 (4 days, CellTiterGlo); assay type: cell-based, H. sapiens; settings: Homo sapiens
Experimental: Cell lines were purchased from the ATCC or donated from collaborators. OCI-AML5 cell line was cultured in αMEM, 10% heat-inactivated FBS supplemented with 10 ng/mL GM-CSF, OCI-AML1, U2OS and HEK293T cell lines in DMEM, 10% heat-inactivated FBS. Cells were maintained at 37 °C in 5% CO2 atmosphere.
Dose-response assays in primary AML specimens were performed as in chemical screen (see above) with the exception that compounds were tested in serial dilution (8 dilutions, 1:4, 10 μM down to 0.5 nM). Dose-response assays in OCI-AML5 cell line were conducted similarly with the following modifications: 300 cells per well were seeded in 50 μL of cell line media and cell viability was evaluated after 4 days in culture.

[3] = Homo sapiens, OCI-AML-5, OCI-AML5 expressing shRNA CCNK (cyclin K), read-out: IC50 shRNA CCNK
[4] = Homo sapiens, OCI-AML-5, OCI-AML5 expressing shRNA CDK1, read-out: IC50 shRNA CDK1
[5] = Homo sapiens, OCI-AML-5, OCI-AML5 expressing shRNA CDK2, read-out: IC50 shRNA CDK2
[6] = Homo sapiens, OCI-AML-5, OCI-AML5 expressing shRNA CDK4, read-out: IC50 shRNA CDK4
[7] = Homo sapiens, OCI-AML-5, OCI-AML5 expressing shRNA CDK7, read-out: IC50 shRNA CDK7
[8] = Homo sapiens, OCI-AML-5, OCI-AML5 expressing shRNA CDK9, read-out: IC50 shRNA CDK9
[9] = OCI-AML-5, OCI-AML5 cells, read-out: IC50 in AML5
[10] = OCI-AML5 expressing shRNA CCNK (cyclin K), read-out: IC50 shRNA CCNK
[11] = OCI-AML5 expressing shRNA CDK1, read-out: IC50 shRNA CDK1
[12] = OCI-AML5 expressing shRNA CDK2, read-out: IC50 shRNA CDK2
[13] = OCI-AML5 expressing shRNA CDK4, read-out: IC50 shRNA CDK4
[14] = OCI-AML5 expressing shRNA CDK7, read-out: IC50 shRNA CDK7
[15] = OCI-AML5 expressing shRNA CDK9, read-out: IC50 shRNA CDK9

T1 sequence (P50750 whole entry): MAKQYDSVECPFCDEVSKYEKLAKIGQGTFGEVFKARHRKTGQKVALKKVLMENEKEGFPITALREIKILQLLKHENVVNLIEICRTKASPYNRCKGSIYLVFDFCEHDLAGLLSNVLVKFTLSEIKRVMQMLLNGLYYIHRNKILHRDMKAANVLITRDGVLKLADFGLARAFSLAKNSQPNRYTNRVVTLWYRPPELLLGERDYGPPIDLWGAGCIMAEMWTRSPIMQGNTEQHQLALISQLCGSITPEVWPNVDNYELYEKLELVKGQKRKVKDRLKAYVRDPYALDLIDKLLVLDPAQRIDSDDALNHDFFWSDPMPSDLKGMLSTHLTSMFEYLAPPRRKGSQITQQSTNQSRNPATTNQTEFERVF
T1 sequence (O60563 whole entry partner): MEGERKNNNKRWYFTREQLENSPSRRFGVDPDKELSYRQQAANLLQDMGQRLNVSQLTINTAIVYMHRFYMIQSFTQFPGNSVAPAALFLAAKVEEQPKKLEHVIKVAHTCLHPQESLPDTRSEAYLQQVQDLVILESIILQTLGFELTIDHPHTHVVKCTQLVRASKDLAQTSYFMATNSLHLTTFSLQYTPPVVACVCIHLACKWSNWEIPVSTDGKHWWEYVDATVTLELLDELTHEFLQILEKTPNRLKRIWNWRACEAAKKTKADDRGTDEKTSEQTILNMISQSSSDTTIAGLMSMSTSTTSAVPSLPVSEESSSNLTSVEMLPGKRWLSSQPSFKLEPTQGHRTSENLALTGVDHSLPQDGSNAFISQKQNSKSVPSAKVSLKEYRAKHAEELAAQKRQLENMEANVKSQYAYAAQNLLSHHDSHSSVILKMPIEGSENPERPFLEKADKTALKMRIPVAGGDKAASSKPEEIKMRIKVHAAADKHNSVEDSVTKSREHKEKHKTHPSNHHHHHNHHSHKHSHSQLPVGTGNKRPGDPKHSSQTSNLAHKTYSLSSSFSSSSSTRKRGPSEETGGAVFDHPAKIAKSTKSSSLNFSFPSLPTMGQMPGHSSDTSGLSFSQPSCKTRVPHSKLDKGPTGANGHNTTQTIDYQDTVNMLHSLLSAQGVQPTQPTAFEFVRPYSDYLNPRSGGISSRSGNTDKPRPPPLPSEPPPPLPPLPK

Row | SMILES | inhibition at 1 µM (CDK9/CyclinT) [%] | IC50 [2, 3] [µM] | IC50 [2, 4] [µM] | IC50 [2, 5] [µM] | IC50 [2, 6] [µM] | IC50 [2, 7] [µM] | IC50 [2, 8] [µM] | Class [2] | % degradation cyclin K-eGFP (cyclin KeGFP) [%] | IC50 (OCI-AML5 cells; [9]) [µM] | activity after alteration of the aminothiazole core / bulky replacement [2] | % CDK9 inhibition (CDK9/CyclinT) [%] | IC50 [2, 10] [µM] | IC50 [2, 11] [µM] | IC50 [2, 12] [µM] | IC50 [2, 13] [µM] | IC50 [2, 14] [µM] | IC50 [2, 15] [µM] | further results
1 | O=C(Cc1ccccn1)Nc1ncc(SCc2cccnc2)s1 [UOM-005566] | 15 | 6.05 | 3.92 | 7.03 | 8.88 | 7.58 | 5.48 | 2 | 4 | 6.56 |  |  |  |  |  |  |  |  | Ratio shCUL4A/shCTRL [1]: 1.07
2 | O=C(Cc1cc(F)ccc1Br)Nc1ncc(SCc2cccnc2)s1 [UOM-005204] | 15 | 6.94 | 3.57 | 8.34 | 5.28 | 8.07 | 4.1 | 2 | 12 | 4.48 |  |  |  |  |  |  |  |  | Ratio shCUL4A/shCTRL [1]: 1.11
3 | CN(C)c1ccc(CC(=O)Nc2nc3c(s2)CCC3)cc1 [UOM-005599] | 0 | > 10 | > 10 | > 10 | > 10 | > 10 | > 10 | inactive | 13 | > 10 | neither bind to CDKs, nor degrade Cyclin K |  |  |  |  |  |  |  | 
4 | CN(C)c1ccc(CC(=O)Nc2nccs2)cc1 [UOM-005597] | 0 | > 10 | > 10 | > 10 | > 10 | > 10 | > 10 | inactive | 4 | > 10 |  |  |  |  |  |  |  |  | 
5 | CN(C)c1ccc(CC(=O)Nc2nncs2)cc1 [UOM-005601] |  |  |  |  |  |  |  | inactive | 1 |  | loss of binding of the compounds to CDK | 0 | > 10 | > 10 | > 10 | > 10 | > 10 | > 10 | 
6 | CC(=O)Nc1ncc(SCc2cccnc2)s1 [UOM-005188] |  |  |  |  |  |  |  | 2 | 6 |  |  | 1 | > 10 | 2.97 | > 10 | > 10 | > 10 | > 10 | 
7 | CN(C)c1ccc(CC(=O)Nc2nnc(SCc3cccnc3)s2)cc1 [UOM-005628] | 0 | > 10 | > 10 | > 10 | > 10 | > 10 | > 10 | inactive | 0 | > 10 | loss of binding of the compounds to CDK |  |  |  |  |  |  |  | 
8 | COC(=O)c1cnc(NC(=O)Cc2ccc(N(C)C)cc2)s1 [UOM-005602] | 0 | > 10 | > 10 | > 10 | > 10 | > 10 | > 10 | inactive | 26 | > 10 |  |  |  |  |  |  |  |  | 
9 | CN(C)c1ccc(CC(=O)Nc2nc3ccccc3o2)cc1 [UOM-005604] |  |  |  |  |  |  |  | inactive | 8 |  | neither bind to CDKs, nor degrade Cyclin K | 0 | > 10 | > 10 | > 10 | > 10 | > 10 | > 10 | 
10 | CN(C)c1ccc(C(=O)Nc2ncc(SCc3cccnc3)s2)cc1 [UOM-005845] |  |  |  |  |  |  |  |  |  |  |  |  |  |  |  |  |  |  | % cyclin KeGFP degradation (cyclin KeGFP; 3 h, 10 μM, compared to DMSO, OCI-AML5 G7 clone): 0%; IC50 (OCI-AML5 cells; OCI-AML-5, 96 h, 4 days incubation, read-out: IC50 OCI-AML5): 1.97 µM
11 | CN(C)c1ccc(CC(=O)Nc2nc3ccccc3s2)cc1 [UOM-005600] |  |  |  |  |  |  |  | inactive | 29 |  | neither bind to CDKs, nor degrade Cyclin K | 10 | > 10 | > 10 | > 10 | > 10 | > 10 | > 10 | 
12 | Cc1nnc(NC(=O)Cc2ccc(N(C)C)cc2)s1 [UOM-005596] |  |  |  |  |  |  |  | inactive | 0 |  | loss of binding of the compounds to CDK | 0 | > 10 | > 10 | > 10 | > 10 | > 10 | > 10 | 
13 | CN(C)c1ccc(CC(=O)Nc2nc3ccccc3[nH]2)cc1 [UOM-005603] | 0 | > 10 | > 10 | > 10 | > 10 | > 10 | > 10 | inactive | 10 | > 10 | neither bind to CDKs, nor degrade Cyclin K |  |  |  |  |  |  |  | 
14 | Cc1csc(NC(=O)Cc2ccc(N(C)C)cc2)n1 [UOM-005598] |  |  |  |  |  |  |  | inactive | 1 |  | neither bind to CDKs, nor degrade Cyclin K | 0 | > 10 | > 10 | > 10 | > 10 | > 10 | > 10 | 
